From paper PMC3469757 (Journal of medicinal chemistry, 2012)

Key:
[1] = test system: panel of 135 other receptors and enzymes (CEREP); assay: Selectivity panel; details: 10 µM
[2] = test system: C57BL/6J wild type mice; assay: Body temperature in wild type mice; type: in vivo, mouse; details: 1 mg/kg oral, 45 min and 60 min post administration
[3] = test system: male NMRI mice; assay: Capsaicin induced hypothermia in mice; type: in vivo, mouse; details: 0.3 mg/kg oral, 15 min before 3 mg/kg ip capsaicin
[4] = test system: CCI-induced cold allodynia in rats; assay: Rat Bennett model of neuropathic pain; type: in vivo; details: po
[5] = test system: TRPV1 knockout mice; assay: Body temperature in TRPV1 knock-out mice; type: in vivo, mouse; details: 1 mg/kg oral
[6] = molecular target: T1, human TRPV1 (Homo sapiens, UniProt Q8NER1); assay: pH assay; type: cell-based; details: hTRPV1 in CHO cells, versus compound 2
[7] = molecular target: T1, human TRPV1; assay: Capsaicin assay; type: cell-based
[8] = molecular target: T1, human TRPV1; assay: [3H]resiniferatoxin binding; details: data not shown

T1 sequence (Q8NER1 whole entry): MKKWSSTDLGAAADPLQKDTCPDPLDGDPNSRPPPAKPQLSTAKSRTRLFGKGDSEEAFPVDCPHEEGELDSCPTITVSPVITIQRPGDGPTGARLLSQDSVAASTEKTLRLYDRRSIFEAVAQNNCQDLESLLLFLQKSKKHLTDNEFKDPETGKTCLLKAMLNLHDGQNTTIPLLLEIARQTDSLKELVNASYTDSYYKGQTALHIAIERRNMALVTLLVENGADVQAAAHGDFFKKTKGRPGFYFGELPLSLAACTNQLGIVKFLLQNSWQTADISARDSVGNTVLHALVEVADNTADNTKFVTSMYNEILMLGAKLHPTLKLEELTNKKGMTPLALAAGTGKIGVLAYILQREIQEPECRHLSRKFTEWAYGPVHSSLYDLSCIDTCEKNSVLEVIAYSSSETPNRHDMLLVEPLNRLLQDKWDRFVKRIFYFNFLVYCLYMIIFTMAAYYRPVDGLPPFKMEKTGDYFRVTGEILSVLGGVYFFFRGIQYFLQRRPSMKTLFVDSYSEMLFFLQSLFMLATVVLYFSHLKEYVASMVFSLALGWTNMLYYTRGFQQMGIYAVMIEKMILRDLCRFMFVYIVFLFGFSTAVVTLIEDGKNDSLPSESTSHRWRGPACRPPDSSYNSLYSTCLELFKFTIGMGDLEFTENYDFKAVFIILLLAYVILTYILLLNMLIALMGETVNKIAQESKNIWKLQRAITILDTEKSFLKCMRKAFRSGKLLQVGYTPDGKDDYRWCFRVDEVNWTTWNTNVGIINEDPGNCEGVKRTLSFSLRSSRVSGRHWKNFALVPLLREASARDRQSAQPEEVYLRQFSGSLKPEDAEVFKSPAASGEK

number of targets not negative in selectivity panel [1]: 7
number of targets with greater than 50% inhibition [1]: 3
body temperature increase [2]: about 1.3 ± 0.1 °C
hyperthermic response [5]: completely absent
fold better than 2 for pH antagonism [6]: 200 fold
fold more potent than 2 over all four TRPV1 activators ([7]; capsaicin, pH, heat (45°C) and NADA, versus compound 2): 140–660 fold
fold more potent than lead 3 for capsaicin antagonism ([7]; hTRPV1 in CHO cells, versus compound 3): ~20 fold
Compound: CC1CCN(c2nc(C(F)(F)F)ccc2CNC(=O)[C@@H](C)c2ccc(NS(C)(=O)=O)c(F)c2)CC1 [Compound 49S, (S)-2-(3-Fluoro-4-(methylsulfonamido)phenyl)-N-((2-(4-methylpiperidin-1-yl)-6-(trifluoromethyl)pyridin-3-yl)methyl)propanamide]
effect on capsaicin induced decrease of body temperature [3]: completely inhibited
side effects like sedation or decreased locomotion [4]: not observed
inhibition of [3H]resiniferatoxin binding to human TRPV1 [8]: inhibited
